Positions count from the first letter of the chain named.
Tests used:
[1] = target: T1, Glycine max (soybean) EPSP synthase DGT-1 variant DGT-1 v6 (G→A) (Glycine max, UniProt I1J7U9, G182A); experiment: In vitro kinetic assay (inorganic phosphate production, malachite green); type: biochemical; conditions: for IC50: IC50 (glyphosate)
T1 sequence (I1J7U9 with tags, fused parts or gaps G182A): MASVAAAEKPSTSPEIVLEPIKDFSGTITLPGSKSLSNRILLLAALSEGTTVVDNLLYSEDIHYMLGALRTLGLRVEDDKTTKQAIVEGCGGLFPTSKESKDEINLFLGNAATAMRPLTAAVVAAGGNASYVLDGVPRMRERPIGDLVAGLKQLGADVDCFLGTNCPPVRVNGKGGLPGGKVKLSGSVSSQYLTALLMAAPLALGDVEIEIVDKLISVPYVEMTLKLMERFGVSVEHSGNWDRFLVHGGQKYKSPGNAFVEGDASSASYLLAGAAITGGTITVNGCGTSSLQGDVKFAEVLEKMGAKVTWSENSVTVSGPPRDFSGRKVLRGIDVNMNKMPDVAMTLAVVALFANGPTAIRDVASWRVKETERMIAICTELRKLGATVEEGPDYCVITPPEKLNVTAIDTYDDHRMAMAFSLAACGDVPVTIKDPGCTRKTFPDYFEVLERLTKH
Text: (§1) The following Class I enzymes: DGT-1 from Glycine max, DGT-3 from Brassica napus (GENBANK ACC NO: P17688), and DGT-7 from Triticum aestivum (GENBANK ACC NO: EU977181) were used as a comparison. The Class I EPSP synthase enzymes and mutant variants thereof were synthesized and evaluated. A mutation introduced into the plant EPSP synthase enzymes consisted of the Glycine to Alanine mutation made within the EPSP synthase enzyme at a similar location as that of the G96A mutation from the E. coli version of the enzyme. In addition, Threonine to Isoleucine and Proline to Serine mutations were introduced within these Class I EPSP synthase enzymes at analogous positions as that of amino acid 97 (T to I) and amino acid 101 (P to S) in the EPSP synthase of E. coli as described in Funke et al., (2009).
(§2) The location of the amino acid residue which was mutated from glycine to alanine is indicated by the first asterisk. The location of the amino acid residue which was mutated from threonine to isoleucine is indicated by the second asterisk. The location of the third amino acid residue which was mutated from proline to serine is indicated by the third asterisk. These mutations were introduced into different versions of DGT-1, DGT-3, and DGT-7. The different versions of the genes which contain the mutations are described in more detail below.
(§3) Additional constructs containing the dgt-1, dgt-3 and dgt-7 were synthesized. These constructs were used for in vitro testing of the dgt-1 v5, dgt-1 v6, dgt-1 v7, dgt-1 v8, dgt-3 v6, dgt-3 v7, dgt-3 v8, dgt-7 v5, dgt-7 v6, dgt-7 v7, and dgt-7 v8 gene sequences were outsourced to GeneArt for synthesis and cloning. The synthesized genes were cloned into the pET28 expression vector. The resulting constructions were labeled as pDAB102028 containing dgt-1 v5, pDAB102029 containing dgt-1 v6, pDAB102032 containing dgt-1 v7, pDAB102034 containing dgt-1 v8, pDAB100429 containing dgt-3 v6, pDAB100442 containing dgt-3 v7, pDAB100430 containing dgt-3 v8, pDAB102036 containing dgt-7 v5, pDAB102038 containing dgt-7 v6, pDAB102040 containing dgt-7 v7, and pDAB102042 containing dgt-7 v8.
(§4) Recombinant DGT proteins were overexpressed in Rosetta2™ (DE3) cells (Novagen, Madison, Wis.) from the constructs described above. A single colony was used to inoculate 50 mL starter cultures of LB containing chloramphenicol (25 μg/mL) and kanamycin (50 μg/mL) which were cultivated overnight at 37° C. The overnight cultures were used to inoculate 1 L of LB containing chloramphenicol (25 μg/mL) and kanamycin (50 μg/mL). The cultures were grown at 37° C. to an O.D.600=0.6 then placed in an ice water bath for 10 minutes. Expression of the target proteins was achieved by addition of IPTG to a final concentration of 500 μM. Induction was allowed to proceed overnight at 20° C. followed by harvesting via centrifugation at 8,000 rpm for 20 minutes. The cell pellets were stored at −80° C. until required for purification. All purification steps were carried out at 4° C.
(§5) Cell pellets from 1 L cultures were resuspended in 20-30 mL Buffer A (50 mM HEPES pH 7.5, 150 mM KCl, 2 mM DTT, 1 mM EDTA, 20 mM imidazole, and 5% glycerol). COMPLETE™ protease inhibitor cocktail (1 tablet/50 mL, Roche, Indianapolis, Ind.) and lysozyme (1 mg/mL, Sigma-Aldrich, St. Louis, Mo.) were then added and the suspension was stirred for 20 minutes. Cell lysis was performed using a Branson Sonifier 250 (3×60 second bursts) followed by removal of the cell debris by centrifugation at 16,000 rpm for 45 minutes. DGT enzymes were purified to homogeneity in one step via immobilized metal affinity chromatography (IMAC) using a 5 mL HisTrap FF crude column. The column was equilibrated in Buffer A and the sample was loaded in the same buffer. The column was then washed with 10 column volumes of Buffer A followed by elution in a 0-100% Buffer B (50 mM HEPES pH 7.5, 200 mM KCl, 2 mM DTT, 1 mM EDTA, 500 mM imidazole, and 5% glycerol) linear gradient over 25 column volumes. […]

[2] = target: T2, Glycine max (soybean) EPSP synthase DGT-1 variant DGT-1 v8 (T→I, P→S; TIPS) (Glycine max, UniProt I1J7U9, P187S/T183I); experiment: as above; type: biochemical
T2 sequence (I1J7U9 with tags, fused parts or gaps T183I/P187S): T1 sequence (I1J7U9 with tags, fused parts or gaps G182A) with A112G, T113I, P117S
Text: as §1, §2, §3, §4, §5

Structure (SMILES) | increase of Km for PEP ([1]; G to A mutation vs un-mutated) | kcat/Km ([2]; PEP, pH 7.5, 1 mM S3P) | IC50 ([1]; at 60 μM PEP) | IC50 ([1]; at 1 mM PEP) | IC50 ([2]; IC50 (glyphosate), at 60 μM PEP) | IC50 ([2]; IC50 (glyphosate), at 1 mM PEP) | IC50 ([2]; tolerance to glyphosate, PEP concentration not given)
C=C(OP(=O)(O)O)C(=O)O [PEP, phosphoenolpyruvate] | ~8 fold | 12300 M⁻¹ s⁻¹ | – | – | – | – | –
O=C(O)CNCP(=O)(O)O [glyphosate, N-(phosphonomethyl)glycine] | – | – | 17.3 mM | 21.1 mM | 5.9 mM | 13.3 mM | 3 to 6 mM
